# Test results taken from patent publication EP3228306A1, “COMPLEX COMPOUND COMPRISING OBETICHOLIC ACID AND CYCLODEXTRIN AND PHARMACEUTICAL FORMULATION COMPRISING THE COMPLEX COMPOUND” (ratiopharm GmbH, priority 2016, dated 2017).
# Where two headings read alike, the source gives them in different places.
# Assays:
# [1] = Solubility of OCA in concentrated aqueous CD solutions (Experiment 2); type: physicochemical; conditions: stirred 60 h
# Experimental: Variable amounts of solid OCA (left column of the Tables given below) were stirred in aqueous CD-solutions (14% (w/w) α-CD, 1.8% β-CD, 20% γ-CD, 20% HP-β-CD, 30% SB-β-CD, 30% RM-β-CD, and 40% HP-γ-CD) for 60 h. Aliquots were filtered through 0.2 µm disposable PTFE filters and the filtrates were analyzed by HPLC/UV. The concentration of OCA was determined based on a calibration curve which was established by twofold analysis of five calibration standards with 0.01 mg/mL to 1.0 mg/mL OCA.
# [2] = Solubility of OCA:CD complexes in physiologically relevant media; type: physicochemical; conditions: thermodynamic from solid, 37°C, complex corresponding to 20 mg obeticholic acid in 2 mL
# Experimental: Obeticholic acid (OCA) or OCA: Cyclodextrin (CD) complex was weighed into a glass vial, followed by addition of 1 or 2 ml solvent (water, 0.01 N HCl, phosphate buffer pH 6.8 and FaSSIF). A stirring bar was added, the vial was fixed in a block heater at 37°C and the suspension was stirred with approx. 250 rpm. After 15 min and 1 h, samples were withdrawn, filtered through a 0.2 µm disposable filter, 100 µl of the clear filtrate were diluted with 900 µl acetonitrile (ACN):Water (1:1) and 1 µl thereof were analyzed by UHPLC/UV.
# Solubilities of OCA:CD complexes were determined by stirring an amount of complex which corresponds to 20 mg of obeticholic acid (calculated from the known drug loads) in 2 mL of solvent for 15 min and 60 min at 37°C according to the method described above under "Analytical Methods". Solubility values are given in mg/ml.
# [3] = cited from earlier work
# [4] = reported in WO 2013/192097; measured in 0.1 N HCl after equilibration under stirring for one week at 25°C; cited from earlier work
structure (smiles),measurement,setting,value
"CC[C@H]1[C@@H](O)[C@@H]2[C@H](CC[C@]3(C)[C@@H]([C@H](C)CCC(=O)O)CC[C@@H]23)[C@@]2(C)CC[C@@H](O)C[C@@H]12 [OCA, 6α-ethyl-chenodeoxycholic acid]",dissolved OCA,"[1]; HP-β-CD (20%) aqueous solution, OCA 10 mg/mL weighed",9.425 mg/mL
same,dissolved OCA,"[1]; HP-β-CD (20%) aqueous solution, OCA 20 mg/mL weighed",18.716 mg/mL
same,dissolved OCA,"[1]; HP-β-CD (20%) aqueous solution, OCA 40 mg/mL weighed",37.499 mg/mL
same,dissolved OCA,"[1]; HP-β-CD (20%) aqueous solution, OCA 50 mg/mL weighed",45.473 mg/mL
same,dissolved OCA,"[1]; HP-β-CD (20%) aqueous solution, OCA 60 mg/mL weighed",45.785 mg/mL
same,dissolved OCA,"[1]; HP-γ-CD (40%) aqueous solution, OCA 10 mg/mL weighed",8.704 mg/mL
same,dissolved OCA,"[1]; HP-γ-CD (40%) aqueous solution, OCA 20 mg/mL weighed",18.095 mg/mL
same,dissolved OCA,"[1]; HP-γ-CD (40%) aqueous solution, OCA 40 mg/mL weighed",35.632 mg/mL
same,dissolved OCA,"[1]; HP-γ-CD (40%) aqueous solution, OCA 80 mg/mL weighed",62.989 mg/mL
same,dissolved OCA,"[1]; RM-β-CD (30%) aqueous solution, OCA 20 mg/mL weighed",17.374 mg/mL
same,dissolved OCA,"[1]; RM-β-CD (30%) aqueous solution, OCA 40 mg/mL weighed",37.316 mg/mL
same,dissolved OCA,"[1]; RM-β-CD (30%) aqueous solution, OCA 80 mg/mL weighed",63.629 mg/mL
same,dissolved OCA,"[1]; RM-β-CD (30%) aqueous solution, OCA 160 mg/mL weighed",78.693 mg/mL
same,dissolved OCA,"[1]; SB-β-CD (30%) aqueous solution, OCA 20 mg/mL weighed",17.545 mg/mL
same,dissolved OCA,"[1]; SB-β-CD (30%) aqueous solution, OCA 40 mg/mL weighed",38.735 mg/mL
same,dissolved OCA,"[1]; SB-β-CD (30%) aqueous solution, OCA 80 mg/mL weighed",60.767 mg/mL
same,dissolved OCA,"[1]; SB-β-CD (30%) aqueous solution, OCA 160 mg/mL weighed",57.080 mg/mL
same,dissolved OCA,"[1]; α-CD (14%) aqueous solution, OCA 5 mg/mL weighed",4.614 mg/mL
same,dissolved OCA,"[1]; α-CD (14%) aqueous solution, OCA 10 mg/mL weighed",6.154 mg/mL
same,dissolved OCA,"[1]; α-CD (14%) aqueous solution, OCA 20 mg/mL weighed",6.937 mg/mL
same,dissolved OCA,"[1]; α-CD (14%) aqueous solution, OCA 40 mg/mL weighed",7.141 mg/mL
same,dissolved OCA,"[1]; β-CD (1.8%) aqueous solution, OCA 2.5 mg/mL weighed",2.229 mg/mL
same,dissolved OCA,"[1]; β-CD (1.8%) aqueous solution, OCA 5 mg/mL weighed",4.312 mg/mL
same,dissolved OCA,"[1]; β-CD (1.8%) aqueous solution, OCA 10 mg/mL weighed",4.830 mg/mL
same,dissolved OCA,"[1]; β-CD (1.8%) aqueous solution, OCA 20 mg/mL weighed",4.880 mg/mL
same,dissolved OCA,"[1]; γ-CD (20%) aqueous solution, OCA 5 mg/mL weighed",0.069 mg/mL
same,dissolved OCA,"[1]; γ-CD (20%) aqueous solution, OCA 10 mg/mL weighed",0.069 mg/mL
same,dissolved OCA,"[1]; γ-CD (20%) aqueous solution, OCA 20 mg/mL weighed",0.066 mg/mL
same,dissolved OCA,"[1]; γ-CD (20%) aqueous solution, OCA 40 mg/mL weighed",0.055 mg/mL
same,solubility at 15 min,"[2]; 0.01 N HCl, pH 2.2, simulated gastric fluid, read-out: Solubility, 0.01 N HCl (pH 2.2), 15 min",< 10 µg/mL
same,solubility at 60 min,"[2]; 0.01 N HCl, pH 2.2, simulated gastric fluid, read-out: Solubility, 0.01 N HCl (pH 2.2), 60 min",< 10 µg/mL
same,solubility at 15 min,"[2]; 50 mM KH2PO4 phosphate buffer, pH 6.5, aqueous buffer, read-out: Solubility, 50 mM KH2PO4 (pH 6.5), 15 min",110 µg/mL
same,solubility at 60 min,"[2]; 50 mM KH2PO4 phosphate buffer, pH 6.5, aqueous buffer, read-out: Solubility, 50 mM KH2PO4 (pH 6.5), 60 min",110 µg/mL
same,solubility at 15 min,"[2]; FaSSIF, pH 6.5, fassif, Fasted State Simulated Intestinal Fluid, read-out: Solubility, FassiF* (pH 6.5), 15 min",520 µg/mL
same,solubility at 60 min,"[2]; FaSSIF, pH 6.5, fassif, Fasted State Simulated Intestinal Fluid, read-out: Solubility, FassiF* (pH 6.5), 60 min",420 µg/mL
same,solubility at 15 min,"[2]; water, pH 7, water, read-out: Solubility, Water (pH 7), 15 min",< 10 µg/mL
same,solubility at 60 min,"[2]; water, pH 7, water, read-out: Solubility, Water (pH 7), 60 min",< 10 µg/mL
same,thermodynamic pKa,[3],about 5
same,water solubility,[4],7.5 µg/mL
